What was measured:
Experiment in all cases: KINOMEscan competition binding
Conditions in all cases: compound 10.0 µM
[1] = molecular target: AXL (human) (UniProt P30530)
[2] = molecular target: BLK (human) (UniProt P51451)
[3] = molecular target: CAMKK2 (human) (UniProt Q96RR4)
[4] = molecular target: CDK19 (human) (UniProt Q9BWU1)
[5] = molecular target: CDK3 (human) (UniProt Q00526)
[6] = molecular target: CDK5 (human) (UniProt Q00535)
[7] = molecular target: CDKL2 (human) (UniProt Q92772)
[8] = molecular target: CSNK1E (human) (UniProt P49674)
Chain of CSNK1E (human) (P49674 whole entry, looked up): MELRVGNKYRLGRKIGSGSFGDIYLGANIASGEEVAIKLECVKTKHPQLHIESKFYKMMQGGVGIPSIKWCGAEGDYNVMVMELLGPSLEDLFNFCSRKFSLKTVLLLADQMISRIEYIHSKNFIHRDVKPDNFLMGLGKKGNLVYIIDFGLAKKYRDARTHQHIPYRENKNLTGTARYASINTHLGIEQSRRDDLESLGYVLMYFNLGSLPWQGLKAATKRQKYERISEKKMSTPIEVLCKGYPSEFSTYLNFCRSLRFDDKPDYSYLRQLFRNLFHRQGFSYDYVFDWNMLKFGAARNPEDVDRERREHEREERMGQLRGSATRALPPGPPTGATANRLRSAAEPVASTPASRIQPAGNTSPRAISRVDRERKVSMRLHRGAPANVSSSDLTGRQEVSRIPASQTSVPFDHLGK

[9] = molecular target: DAPK1 (human) (UniProt P53355)
[10] = molecular target: DDR1 (human) (UniProt Q08345)
[11] = test system: EGFR (human), P00533 [A750P; 747-749 del]
[12] = molecular target: EPHB3 (human) (UniProt P54753)
[13] = molecular target: FLT1 (human) (UniProt P17948)
[14] = test system: FLT3 (human), P36888 [D835Y]
[15] = molecular target: INSR (human) (UniProt P06213)
[16] = molecular target: KIT (human) (UniProt P10721)
Chain of KIT (human) (P10721 whole entry, looked up): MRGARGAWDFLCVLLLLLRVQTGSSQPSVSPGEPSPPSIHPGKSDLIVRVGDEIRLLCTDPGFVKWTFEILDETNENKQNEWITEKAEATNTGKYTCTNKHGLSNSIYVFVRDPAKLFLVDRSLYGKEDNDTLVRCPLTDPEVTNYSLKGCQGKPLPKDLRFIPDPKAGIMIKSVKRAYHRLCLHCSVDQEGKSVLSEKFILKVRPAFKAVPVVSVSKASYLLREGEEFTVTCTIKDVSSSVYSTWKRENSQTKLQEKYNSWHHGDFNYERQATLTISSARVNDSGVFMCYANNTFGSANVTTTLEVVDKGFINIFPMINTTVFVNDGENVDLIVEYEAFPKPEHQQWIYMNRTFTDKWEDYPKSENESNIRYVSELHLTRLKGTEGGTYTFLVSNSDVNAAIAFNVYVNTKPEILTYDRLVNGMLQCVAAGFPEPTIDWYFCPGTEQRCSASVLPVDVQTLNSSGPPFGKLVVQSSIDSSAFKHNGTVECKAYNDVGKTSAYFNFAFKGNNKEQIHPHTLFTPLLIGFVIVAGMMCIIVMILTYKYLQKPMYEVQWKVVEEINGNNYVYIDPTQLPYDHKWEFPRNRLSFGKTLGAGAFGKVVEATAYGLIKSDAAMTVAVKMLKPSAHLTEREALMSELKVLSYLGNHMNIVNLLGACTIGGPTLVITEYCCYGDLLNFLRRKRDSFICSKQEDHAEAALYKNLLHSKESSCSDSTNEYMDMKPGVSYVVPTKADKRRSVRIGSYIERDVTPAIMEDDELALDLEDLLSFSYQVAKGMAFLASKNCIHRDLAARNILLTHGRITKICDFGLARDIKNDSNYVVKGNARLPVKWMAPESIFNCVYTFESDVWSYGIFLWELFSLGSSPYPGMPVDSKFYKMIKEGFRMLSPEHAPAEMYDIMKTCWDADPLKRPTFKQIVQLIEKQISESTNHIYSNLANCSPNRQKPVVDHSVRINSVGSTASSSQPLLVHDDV

[17] = test system: KIT (human), P10721 [A829P]
Chain of KIT (human), P10721 [A829P] (P10721 whole entry A829P, looked up): as the sequence (P10721 whole entry, looked up) above, with A829P counted along it

[18] = molecular target: LIMK2 (human) (UniProt P53671)
Chain of LIMK2 (human) (P53671 whole entry, looked up): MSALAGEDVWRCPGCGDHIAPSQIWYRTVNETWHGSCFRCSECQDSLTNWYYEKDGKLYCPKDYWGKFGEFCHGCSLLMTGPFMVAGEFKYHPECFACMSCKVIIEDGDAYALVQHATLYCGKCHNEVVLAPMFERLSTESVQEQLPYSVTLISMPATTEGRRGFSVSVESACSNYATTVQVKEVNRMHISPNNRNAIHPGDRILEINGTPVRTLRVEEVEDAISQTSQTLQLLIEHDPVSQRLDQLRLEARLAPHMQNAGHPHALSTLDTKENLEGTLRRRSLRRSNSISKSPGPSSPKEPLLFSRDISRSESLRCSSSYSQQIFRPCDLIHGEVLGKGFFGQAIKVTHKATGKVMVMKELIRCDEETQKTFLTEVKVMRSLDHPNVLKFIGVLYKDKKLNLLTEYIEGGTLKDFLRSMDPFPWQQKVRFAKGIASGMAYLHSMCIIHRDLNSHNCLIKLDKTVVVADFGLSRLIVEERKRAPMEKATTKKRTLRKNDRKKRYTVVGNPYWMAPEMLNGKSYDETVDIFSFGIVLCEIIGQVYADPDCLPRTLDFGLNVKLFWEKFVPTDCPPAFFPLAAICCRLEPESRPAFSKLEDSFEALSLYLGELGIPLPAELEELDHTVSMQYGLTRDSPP

[19] = molecular target: MAPK3 (human) (UniProt P27361)
[20] = molecular target: MTOR (human) (UniProt P42345)
[21] = molecular target: MYO3A (human) (UniProt Q8NEV4)
[22] = molecular target: NTRK3 (human) (UniProt Q16288)
[23] = molecular target: PIK3CG (human) (UniProt P48736)
[24] = molecular target: PIP4K2C (human) (UniProt Q8TBX8)
[25] = molecular target: PRKD1 (human) (UniProt Q15139)
[26] = molecular target: PTK6 (human) (UniProt Q13882)
[27] = molecular target: RAF1 (human) (UniProt P04049)
Chain of RAF1 (human) (P04049 whole entry, looked up): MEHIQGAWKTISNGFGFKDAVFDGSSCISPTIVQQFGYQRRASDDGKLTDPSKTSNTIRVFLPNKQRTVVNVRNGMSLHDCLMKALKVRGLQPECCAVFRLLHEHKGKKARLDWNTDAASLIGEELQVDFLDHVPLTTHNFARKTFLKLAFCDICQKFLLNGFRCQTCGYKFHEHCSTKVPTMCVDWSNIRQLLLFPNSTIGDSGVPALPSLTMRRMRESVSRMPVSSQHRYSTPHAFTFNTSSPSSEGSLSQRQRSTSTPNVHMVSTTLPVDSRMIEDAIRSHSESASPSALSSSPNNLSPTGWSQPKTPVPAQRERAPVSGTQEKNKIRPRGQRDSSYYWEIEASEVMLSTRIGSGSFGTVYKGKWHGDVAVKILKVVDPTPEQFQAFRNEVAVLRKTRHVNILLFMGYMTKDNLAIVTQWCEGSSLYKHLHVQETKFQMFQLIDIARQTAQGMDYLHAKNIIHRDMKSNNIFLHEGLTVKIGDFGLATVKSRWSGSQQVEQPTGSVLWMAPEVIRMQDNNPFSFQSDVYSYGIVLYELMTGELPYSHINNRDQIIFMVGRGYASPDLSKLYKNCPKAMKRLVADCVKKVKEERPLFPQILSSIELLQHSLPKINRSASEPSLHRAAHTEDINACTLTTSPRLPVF

[28] = molecular target: ROS1 (human) (UniProt P08922)
[29] = molecular target: RPS6KA1 KD1 (human) (UniProt Q15418)
[30] = molecular target: SNRK (human) (UniProt Q9NRH2)
Chain of SNRK (human) (Q9NRH2 whole entry, looked up): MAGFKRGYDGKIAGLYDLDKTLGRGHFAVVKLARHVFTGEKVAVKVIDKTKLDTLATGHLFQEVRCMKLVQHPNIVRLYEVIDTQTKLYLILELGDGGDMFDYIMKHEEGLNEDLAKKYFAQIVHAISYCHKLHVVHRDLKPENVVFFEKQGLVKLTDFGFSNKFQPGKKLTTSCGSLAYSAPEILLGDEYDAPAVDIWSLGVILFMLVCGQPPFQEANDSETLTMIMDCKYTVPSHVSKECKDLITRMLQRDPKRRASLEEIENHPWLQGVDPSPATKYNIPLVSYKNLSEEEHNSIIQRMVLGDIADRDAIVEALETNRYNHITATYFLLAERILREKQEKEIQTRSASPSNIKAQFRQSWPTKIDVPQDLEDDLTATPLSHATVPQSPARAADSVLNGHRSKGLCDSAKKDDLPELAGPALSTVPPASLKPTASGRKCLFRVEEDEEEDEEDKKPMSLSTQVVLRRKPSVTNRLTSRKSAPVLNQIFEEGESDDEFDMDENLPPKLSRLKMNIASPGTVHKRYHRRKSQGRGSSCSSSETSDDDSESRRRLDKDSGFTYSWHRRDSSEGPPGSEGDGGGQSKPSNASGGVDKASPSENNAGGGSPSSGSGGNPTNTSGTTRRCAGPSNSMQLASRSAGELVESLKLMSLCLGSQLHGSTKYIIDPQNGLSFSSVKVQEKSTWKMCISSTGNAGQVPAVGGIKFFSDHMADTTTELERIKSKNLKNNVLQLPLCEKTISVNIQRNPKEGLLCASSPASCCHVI

[31] = molecular target: SRPK3 (human) (UniProt Q9UPE1)
[32] = molecular target: STK17A (human) (UniProt Q9UEE5)
[33] = molecular target: STK24 (human) (UniProt Q9Y6E0)
[34] = molecular target: STK38 (human) (UniProt Q15208)
[35] = molecular target: TAOK3 (human) (UniProt Q9H2K8)
[36] = molecular target: TNIK (human) (UniProt Q9UKE5)
[37] = molecular target: TSSK1B (human) (UniProt Q9BXA7)
[38] = molecular target: ULK1 (human) (UniProt O75385)
Chain of ULK1 (human) (O75385 whole entry, looked up): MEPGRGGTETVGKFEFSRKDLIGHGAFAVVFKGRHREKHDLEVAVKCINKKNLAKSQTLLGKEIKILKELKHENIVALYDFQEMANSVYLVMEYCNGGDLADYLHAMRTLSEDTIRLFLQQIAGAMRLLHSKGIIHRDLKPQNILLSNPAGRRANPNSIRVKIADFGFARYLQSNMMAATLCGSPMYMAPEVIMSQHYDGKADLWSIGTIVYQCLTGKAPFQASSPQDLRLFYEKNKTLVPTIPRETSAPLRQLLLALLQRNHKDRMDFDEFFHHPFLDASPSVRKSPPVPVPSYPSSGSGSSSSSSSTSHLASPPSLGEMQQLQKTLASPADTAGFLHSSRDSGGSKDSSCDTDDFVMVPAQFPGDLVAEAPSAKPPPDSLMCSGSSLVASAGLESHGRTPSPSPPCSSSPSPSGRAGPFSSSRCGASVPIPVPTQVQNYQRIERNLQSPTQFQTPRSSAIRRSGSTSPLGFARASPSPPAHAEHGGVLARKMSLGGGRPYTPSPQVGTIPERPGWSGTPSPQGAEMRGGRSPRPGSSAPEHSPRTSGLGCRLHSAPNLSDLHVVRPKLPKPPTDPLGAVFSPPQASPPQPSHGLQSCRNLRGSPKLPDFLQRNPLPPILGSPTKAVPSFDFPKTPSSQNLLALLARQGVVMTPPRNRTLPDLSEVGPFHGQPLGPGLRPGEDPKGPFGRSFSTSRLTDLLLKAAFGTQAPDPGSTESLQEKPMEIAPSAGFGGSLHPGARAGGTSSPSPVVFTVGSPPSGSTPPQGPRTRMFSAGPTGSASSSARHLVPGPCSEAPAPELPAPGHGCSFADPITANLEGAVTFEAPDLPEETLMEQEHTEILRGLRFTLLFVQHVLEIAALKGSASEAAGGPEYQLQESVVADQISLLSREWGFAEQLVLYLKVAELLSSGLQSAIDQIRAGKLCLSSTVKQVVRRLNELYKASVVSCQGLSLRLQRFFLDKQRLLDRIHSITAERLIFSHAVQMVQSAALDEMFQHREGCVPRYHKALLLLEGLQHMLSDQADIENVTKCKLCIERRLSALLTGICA

[39] = molecular target: YES1 (human) (UniProt P07947)
[40] = molecular target: KDR (human) (UniProt P35968)

Chain of CDK3 (human) (Q00526 whole entry, looked up): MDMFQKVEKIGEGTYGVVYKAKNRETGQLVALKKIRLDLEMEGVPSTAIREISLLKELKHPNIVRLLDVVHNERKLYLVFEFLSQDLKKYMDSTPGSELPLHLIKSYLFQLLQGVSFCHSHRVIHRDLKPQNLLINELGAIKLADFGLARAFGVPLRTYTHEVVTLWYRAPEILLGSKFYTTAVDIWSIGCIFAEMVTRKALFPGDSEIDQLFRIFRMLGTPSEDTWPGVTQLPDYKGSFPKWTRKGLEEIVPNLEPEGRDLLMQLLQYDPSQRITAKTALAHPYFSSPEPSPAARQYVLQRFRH

Structure (SMILES) | kinase still bound, per cent of control [1] [%] | kinase still bound, per cent of control [3] [%] | kinase still bound, per cent of control [4] [%] | kinase still bound, per cent of control [5] [%] | kinase still bound, per cent of control [6] [%] | kinase still bound, per cent of control [7] [%] | kinase still bound, per cent of control [8] [%] | kinase still bound, per cent of control [10] [%] | kinase still bound, per cent of control [12] [%] | kinase still bound, per cent of control [13] [%] | kinase still bound, per cent of control [16] [%] | kinase still bound, per cent of control [18] [%] | kinase still bound, per cent of control [19] [%] | kinase still bound, per cent of control [21] [%] | kinase still bound, per cent of control [22] [%] | kinase still bound, per cent of control [23] [%] | kinase still bound, per cent of control [25] [%] | kinase still bound, per cent of control [29] [%] | kinase still bound, per cent of control [31] [%] | kinase still bound, per cent of control [33] [%] | further results
CCCS(=O)(=O)Nc1ccc(F)c(C(=O)c2c[nH]c3ncc(Cl)cc23)c1F | 40 | 79 | 0.8 | 98 | 57 | 49 | 60 | 1.6 | 100 | 28 | 0.1 | 24 | 100 | 35 | 77 | 83 | 31 | 71 | 100 | 77 | kinase still bound, per cent of control [2]: 1.7%; kinase still bound, per cent of control [9]: 89%; kinase still bound, per cent of control [11]: 77%; kinase still bound, per cent of control [14]: 31%; kinase still bound, per cent of control [15]: 83%; kinase still bound, per cent of control [17]: 67%; kinase still bound, per cent of control [20]: 58%; kinase still bound, per cent of control [24]: 100%; kinase still bound, per cent of control [26]: 0.5%; kinase still bound, per cent of control [27]: 3.4%; kinase still bound, per cent of control [28]: 34%; kinase still bound, per cent of control [30]: 100%; kinase still bound, per cent of control [32]: 44%; kinase still bound, per cent of control [34]: 78%; kinase still bound, per cent of control [35]: 61%; kinase still bound, per cent of control [36]: 24%; kinase still bound, per cent of control [37]: 83%; kinase still bound, per cent of control [38]: 44%; kinase still bound, per cent of control [39]: 18%
CCc1nc(-c2cccc(C)c2)c(-c2ccnc(NC(=O)c3ccccc3)c2)s1 | 80 | 100 | 91 | 100 | 100 | 80 | 0.05 | 2.8 | 81 | 31 | 45 | 94 | 98 | 60 | 96 | 100 | 65 | 89 | 100 | 69 | kinase still bound, per cent of control [2]: 17%; kinase still bound, per cent of control [9]: 72%; kinase still bound, per cent of control [40]: 38%; kinase still bound, per cent of control [17]: 100%; kinase still bound, per cent of control [20]: 100%; kinase still bound, per cent of control [26]: 30%; kinase still bound, per cent of control [27]: 34%; kinase still bound, per cent of control [28]: 69%; kinase still bound, per cent of control [30]: 100%; kinase still bound, per cent of control [32]: 81%; kinase still bound, per cent of control [34]: 100%; kinase still bound, per cent of control [35]: 86%; kinase still bound, per cent of control [36]: 5.5%; kinase still bound, per cent of control [37]: 87%; kinase still bound, per cent of control [38]: 69%; kinase still bound, per cent of control [39]: 5.6%
CCOc1cc(N2CCC(O)CC2)ccc1Nc1ncc2c(n1)N(C)c1ccccc1C(=O)N2C | 100 | 100 | 100 | 100 | 100 | 100 | 100 | 100 | 100 | 100 | 100 | 100 | 100 | 100 | 100 | 100 | 100 | 100 | 100 | 100 | kinase still bound, per cent of control [2]: 100%; kinase still bound, per cent of control [9]: 100%; kinase still bound, per cent of control [11]: 100%; kinase still bound, per cent of control [14]: 100%; kinase still bound, per cent of control [15]: 100%; kinase still bound, per cent of control [40]: 100%; kinase still bound, per cent of control [26]: 100%; kinase still bound, per cent of control [27]: 100%; kinase still bound, per cent of control [28]: 15%; kinase still bound, per cent of control [32]: 100%; kinase still bound, per cent of control [34]: 100%; kinase still bound, per cent of control [35]: 100%; kinase still bound, per cent of control [36]: 100%; kinase still bound, per cent of control [37]: 100%; kinase still bound, per cent of control [38]: 100%; kinase still bound, per cent of control [39]: 100%
CC(=O)c1c(C)c2cnc(Nc3ccc(N4CCNCC4)cn3)nc2n(C2CCCC2)c1=O | 16 | 20 | 100 | 74 | 48 | 6.8 | 16 | 60 | 91 | 100 | 60 | 90 | 64 | 58 | 23 | 6.8 | 0.85 | 12 | 23 | 16 | kinase still bound, per cent of control [14]: 1.6%; kinase still bound, per cent of control [15]: 67%; kinase still bound, per cent of control [17]: 32%; kinase still bound, per cent of control [20]: 40%; kinase still bound, per cent of control [24]: 1%; kinase still bound, per cent of control [30]: 94%; kinase still bound, per cent of control [34]: 57%; kinase still bound, per cent of control [35]: 8.1%; kinase still bound, per cent of control [36]: 23%; kinase still bound, per cent of control [37]: 8%; kinase still bound, per cent of control [38]: 3.1%; kinase still bound, per cent of control [39]: 83%
